Source: PMC12528653, “Functional characterization of key enzymes involved in the biosynthesis of distinctive flavonoids and stilbenoids in Morus notabilis” (Horticulture Research, 2025)

Legend:
Test in all cases: HPLC product assay, relative activity vs wild type
Type in all cases: biochemical
MnFLS [1] = molecular target: T1, MnFLS (Morus notabilis, UniProt W9RQ78, L224M); details: 100 μM substrate; 2-oxoglutarate, ascorbate, FeSO4; Tris-HCl pH 7.0, 30°C, 1 h; wild-type residue also printed as Met224
T1 construct: gene L484_013110; full-length ORF (1008 bp, 335 aa) in pET32a, E. coli BL21(DE3), purified recombinant
T1 sequence (W9RQ78 entry or part of it L224M): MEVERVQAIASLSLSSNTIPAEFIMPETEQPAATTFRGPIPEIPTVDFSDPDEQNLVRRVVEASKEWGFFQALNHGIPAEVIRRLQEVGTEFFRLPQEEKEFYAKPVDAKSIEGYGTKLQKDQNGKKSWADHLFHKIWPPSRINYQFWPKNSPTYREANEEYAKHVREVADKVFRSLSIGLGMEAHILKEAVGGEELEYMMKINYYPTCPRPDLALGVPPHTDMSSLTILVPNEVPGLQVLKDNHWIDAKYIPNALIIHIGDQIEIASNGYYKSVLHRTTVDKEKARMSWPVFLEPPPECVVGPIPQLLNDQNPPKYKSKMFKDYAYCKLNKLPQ

MnFLS [2] = molecular target: T2, MnFLS (Morus notabilis, UniProt W9RQ78, T117I); details: 100 μM substrate; 2-oxoglutarate, ascorbate, FeSO4; Tris-HCl pH 7.0, 30°C, 1 h
T2 construct: gene L484_013110; full-length ORF (1008 bp, 335 aa) in pET32a, E. coli BL21(DE3), purified recombinant
T2 sequence (W9RQ78 entry or part of it T117I): as the sequence (W9RQ78 entry or part of it L224M) above, with T117I, M224L counted along it

MnFLS [3] = molecular target: T3, MnFLS (Morus notabilis, UniProt W9RQ78, T117S); details: 100 μM substrate; 2-oxoglutarate, ascorbate, FeSO4; Tris-HCl pH 7.0, 30°C, 1 h
T3 construct: gene L484_013110; full-length ORF (1008 bp, 335 aa) in pET32a, E. coli BL21(DE3), purified recombinant
T3 sequence (W9RQ78 entry or part of it T117S): as the sequence (W9RQ78 entry or part of it L224M) above, with T117S, M224L counted along it

MnFLS [4] = molecular target: T4, MnFLS (Morus notabilis, UniProt W9RQ78, K202V); details: 100 μM substrate; 2-oxoglutarate, ascorbate, FeSO4; Tris-HCl pH 7.0, 30°C, 1 h
T4 construct: gene L484_013110; full-length ORF (1008 bp, 335 aa) in pET32a, E. coli BL21(DE3), purified recombinant
T4 sequence (W9RQ78 entry or part of it K202V): as the sequence (W9RQ78 entry or part of it L224M) above, with K202V, M224L counted along it

| Structure (SMILES) | HPLC product assay, relative activity vs wild type (MnFLS [1]) | HPLC product assay, relative activity vs wild type (MnFLS [2]) | HPLC product assay, relative activity vs wild type (MnFLS [3]) | HPLC product assay, relative activity vs wild type (MnFLS [4]) |
| --- | --- | --- | --- | --- |
| O=C1c2c(O)cc(O)cc2O[C@H](c2ccc(O)cc2)[C@H]1O [dihydrokaempferol] | The variant L224M facilitated the conversion of dihydrokaempferol to kaempferol | replacing the Thr117 with Ile led to reduced activity | T117S resulted in significant enhancement of activity for both naringenin and dihydrokaempferol as substrates | the mutant K202V suffered an almost complete loss of enzymatic function |
| O=C1C[C@@H](c2ccc(O)cc2)Oc2cc(O)cc(O)c21 [naringenin] | promoted an increased synthesis of dihydrokaempferol and kaempferol from naringenin | replacing the Thr117 with Ile led to reduced activity | T117S resulted in significant enhancement of activity for both naringenin and dihydrokaempferol as substrates | the mutant K202V suffered an almost complete loss of enzymatic function |
